These results are taken from patent publication US20100150985A1, “Dental Implant, Endodontic Instrument, and Dental Filling Material Coated with a Peptide-Based Antimicrobial and Methods of Using and Making the Same” (priority 2008, published 2010).

For one series, the system named is Staphylococcus aureus. In words: in-vitro assay of immobilized peptide on 316L stainless steel pins. The class given is cell-based. The conditions noted are these: peptide covalently bonded to parylene coated stainless steel pins, after ethylene oxide sterilization; data not shown. An excerpt:
Medical standard alloy 316L stainless steel pins were coated with an antimicrobial peptide layer to determine the efficacy of an immobilized antimicrobial peptide. The pins were coated with a tie layer. A parylene coating containing a reactive molecule specific for the N-terminus region of the peptide (“Photopolymer”) was then applied over the tie layer. The peptide WLBU-2 (SEQ ID NO. 179) was applied to the parylene coating and exposed to UV light to facilitate covalent bonding of the peptide with the parylene coating. Parylene coated stainless steel pins and non-coated stainless steel pins were used as controls. All samples and controls were subjected to ethylene oxide sterilization. The coated samples were placed in 75% relative humidity overnight.

The nature of series [1]: retention of antimicrobial/biological activity after sterilization. The conditions noted are these: peptide coated on a substrate, ethylene oxide sterilization. An excerpt: In a useful embodiment of the present invention, the antimicrobial peptides may retain antibacterial activity after a dental device coated with the antimicrobial, peptide is sterilized.

For the substance “RRWVRRVRRVWRRVVRVVRRWVVRR (RRWVRRVRRVWRRVVRVVRRWVRR; Artificial peptide derived from HIV-1) [WLBU-2, Lytic Base Unit peptide]”, the “efficacy of immobilized antimicrobial peptide” value in the series with Staphylococcus aureus was “efficacy against Staphylococcus aureus”. The “antimicrobial activity after sterilization” value in series [1] is “retained antimicrobial activity”.
